No end group written: not given here.
Key:
[1] = human serum; details: 37°C, up to 2 h
[2] = target: T1, recombinant extracellular domain of human CAIX (Homo sapiens, UniProt Q16790); assay: Binding of 125I-labeled CaIX-P1 on immobilized recombinant extracellular domain of CAIX; details: co-incubation of ^125I-CaIX-P1 with unlabeled CaIX-P1 at 10^−4 M, p<0.05, n = 3; read-out: Binding inhibition of the radioligand
T1 construct: Fc (Fc gamma, from pSEC-EGP-2-Fcγ vector) (C); made in house; host or cells: Flp-In-293 human embryonic kidney cells (secreted into medium)
Procedure: Binding of ^125I-labeled CaIX-P1 was performed on immobilized recombinant extracellular domain of human CAIX and of EGFR. For immobilization the target proteins CAIX and EGFR were incubated at a concentration of 50 nM in 24-well plates for 24 h. Thereafter, the plates were washed three times with 500 µl PBS pH 7.4. Incubation with ^125I-CaIX-P1 was performed in 500 µl PBS pH 7.4 for 30 min. After incubation the plates were washed three times with 500 µl ice cold PBS pH 7.4. The target proteins were degraded with 500 µl NaOH 0.3 mol/L and the radioactivity was counted with a γ-counter. Bound radioactivity was calculated as percentage applied dose. In order to evaluate the specificity of the radioligand binding, competition experiments with the unlabeled CaIX-P1 peptide at a concentration of 10^−4 M were carried out.

[3] = system: CAIX positive SKRC 52 cells; type: cell-based, human; details: 24 h
Procedure: For binding experiments 3×10^5 CAIX positive SKRC 52 cells were seeded into 6-well plates and cultivated in 3 mL of incubation medium at 37°C for 24 h. After cell blocking with RPMI 1640 (without FCS) containing 1% BSA, the medium was replaced with 1 mL of fresh medium (without FCS) containing 0.5–1.5×10^6 cpm of ^125I-labeled peptide and incubation was performed for time periods varying from 10 min to 6 h at 37°C. To determine specific versus nonspecific binding, the cells were incubated with the unlabeled CaIX-P1 peptide at concentrations varying from 10^−4 to 10^−10 mol/L. Octreotide was used as negative control competitor. After incubation the medium was removed and the cells were washed three times with 1 mL ice cold PBS in order to remove the unbound radiolabeled peptide. Subsequently, the cells were lysed with 0.5 mL NaOH 0.3 mol/L and the radioactivity was measured with a γ-counter. Bound radioactivity was calculated as percentage applied dose per 10^6 cells. Binding experiments were also performed on HCT 116 cells and on human umbilical vein endothelial cells (HUVEC) at various cell densities. CAIX negative CaKi-2 cells were used as negative control.

[4] = Stability in human serum; type: in vitro ADME; details: 37°C
Procedure: The stability of CaIX-P1 was investigated in human serum. The peptide was incubated at 37°C in human serum at a concentration of 10^−4 mol/L. At time points varying from 5 min to 2 h aliquots were taken, mixed with equal volume acetonitrile to precipitate serum proteins and centrifuged for 5 min at 13,000 rpm. The supernatant was analyzed with HPLC on a Chromolith Performance RP-18e 100×4.6 mm column (Merck) using a linear gradient of water and acetonitrile containing 0.1% trifluoroacetic acid. Samples of CaIX-P1 and its fragments in human serum were isolated and analyzed by MALDI-TOF mass spectrometry.

Sequence | cleaved bond [1] | inhibition at 100 µM [2] [%] | IC50 [3] [nM] | Main product of serum degradation ([4]; 10^−4 mol/L, appeared after 10 min, HPLC isolation and MALDI-TOF mass spectrometry) | half-life ([4]; peptide 10^−4 mol/L, aliquots 5 min to 2 h, acetonitrile precipitation, HPLC) [min]
YNTNHVPLSPKY | tyrosine1-N2, major, 10 min |  |  |  | 
YNTNHVPLSPKY [CaIX-P1] |  | 93 | 1750 ± 490 | lacking the N-terminal tyrosine | ~25

— publication PMC3013143 (PLoS ONE, 2010)
